The term MIC denotes the lowest concentration that inhibits growth of the organism.

SMILES strings stand for the structures. In brackets after ≈: the same amount, converted by molar mass.

For assay [1], the system named is C. albicans ATCC 14053. The experiment in a line: MIC microdilution susceptibility testing, C. albicans in RPMI. The class given is cell-based, Candida albicans. The following applies: for MIC: Candida albicans. How it is done:
(§1) Microorganisnis. […] Stock cultures were kept on Sabouraud dextrose agar (SDA; Becton-Dickinson and Co., Sparks, Md.). Subcultures were prepared on SDA at 35-37° C. Suspension cultures were prepared by inoculation of single colonies in 7 ml of normal saline solution.
(§2) Test compounds were dissolved in DMSO (0.56 mg/ml) and stored at 0° C. Working dilutions were made in RPMI or SDB medium. […] The final maximum concentration of DMSO in the assays was 5% (v/v).
(§3) Microdilutions for control experiments with C. albicans, A. niger, and C. neoformans were the modified method of National Committee for Clinical Laboratory Standards (NCCLS) method as described by Galgiani and by the more recent NCCLS M27-A microdilution methods as described previously. Galgiani, J. N. Antimicrob. Agents Chemother. […] Reference method for broth dilution antifungal susceptibility testing for yeasts. Approval standard. […] 9; C. arballeira, N. M., et al. Arch. Pharm.-Pharm. […] Dilutions were prepared in 0.1 ml of RPMI or SDB; the inocula were either 10^4 C. albicans or C. neoformans cells or A. niger spores. The tubes were incubated for 24-48 h at 36±1° C., and turbidity was read visually.
In general terms: Dilution methods test growth across graded concentrations, often in twofold steps.

Assay [2] relates to C. albicans ATCC 14053. The experiment in a line: MIC microdilution susceptibility testing, C. albicans in SDB. The following applies: 24-48 h, average of three experiments; for MIC: Candida albicans. The assay is classed as cell-based, Candida albicans. How it is done: as §1, §2, §3
The test system of another assay is C. neoformans ATCC 66031. The experiment in a line: MIC microdilution susceptibility testing, C. neoformans in SDB. The assay is classed as cell-based, Cryptococcus neoformans. The following applies: SDB medium, 35-37° C., 24-48 h, average of three experiments; for MIC: Cryptococcus neoformans, ATCC66031. How it is done: as §1, §2, §3
For another assay, the system named is A. niger ATCC 16404. The experiment in a line: MIC microdilution susceptibility testing, A. niger in SDB. The following applies: SDB medium, 35-37° C., 24-48 h, average of three experiments; for MIC: Aspergillus niger, ATCC16404. The class given is cell-based, Aspergillus niger. How it is done: as §1, §2, §3
Setting [3] is: ATCC14053, pH 6.9, read-out: MIC C. albicans ATCC 14053, RPMI.
Setting [4] is: ATCC14053, SDB medium pH 5.6, 35-37° C.
Setting [5] is: ATCC14053, RPMI medium pH 6.9, 35-37° C., 24-48 h, average of three experiments, read-out: MIC C. albicans ATCC 14053, RPMI.
Where [6] appears, read: ATCC14053, pH 5.6, SDB medium pH 5.6, 35-37° C.
Setting [7] is: RPMI medium pH 6.9, 35-37° C., 24-48 h, average of three experiments.

Take `CCC(Br)C(=O)O` (stereo not shown) [2-Bromobutyric acid, reference compound]: the figures for the minimum inhibitory concentration (MIC) in the assay with C. albicans ATCC 14053 [1] (setting [3]), in the assay on C. albicans ATCC 14053 [2] (setting [4]) and against C. neoformans ATCC 66031 were 513 µg/mL (≈ 3070 µM), > 513 µg/mL and > 513 µg/mL, respectively.

In the case of `CCCCC(Br)C(=O)O` (stereo not shown) [2-Bromohexanoic acid, reference compound], the minimal inhibitory concentration (MIC) in the assay with C. albicans ATCC 14053 [1] (setting [3]) is ≥ 710 µg/mL; against C. albicans ATCC 14053 [2] (setting [4]) it was 710 µg/mL (≈ 3640 µM); in the assay on C. neoformans ATCC 66031, 355 µg/mL (≈ 1820 µM); against A. niger ATCC 16404, 710 µg/mL (≈ 3640 µM).

Take `CCCCCCCCCCC(Br)C(=O)O` (stereo not shown) [2-Bromolauric acid, reference compound]: the MIC in the assay on C. albicans ATCC 14053 [1] (setting [5]) turned out to be 155 µg/mL (≈ 555 µM); in the assay on C. albicans ATCC 14053 [2] (setting [6]), 155 µg/mL (≈ 555 µM); against C. neoformans ATCC 66031, 19 µg/mL (≈ 68 µM); with A. niger ATCC 16404, 78 µg/mL (≈ 279 µM).

For `CCCCCCCCCCCCC(Br)C(=O)O` (stereo not shown) [2-Bromomyristic acid, reference compound], the MIC with C. albicans ATCC 14053 [1] (setting [5]) is 12 µg/mL (≈ 39.1 µM); in the assay on C. albicans ATCC 14053 [2] (setting [6]), > 540 µg/mL; in the assay on C. neoformans ATCC 66031 it was 15 µg/mL (≈ 48.8 µM); in the assay on A. niger ATCC 16404 it was 68 µg/mL (≈ 221 µM).

Regarding `CC(Br)C(=O)Cl` (stereo not shown) [2-Bromopropionyl chloride, reference compound], the MIC in the assay with C. albicans ATCC 14053 [1] (setting [5]) amounted to 468 µg/mL; in the assay on C. albicans ATCC 14053 [2] (setting [6]) it was 468 µg/mL; in the assay on C. neoformans ATCC 66031 it was 117 µg/mL; with A. niger ATCC 16404, 468 µg/mL.

For the compound `CCCC(Br)C(=O)O` (stereo not shown) [2-Bromovaleric acid, reference compound], the minimal inhibitory concentration (MIC) with C. albicans ATCC 14053 [1] (setting [5]) was ≥ 578 µg/mL; in the assay on C. albicans ATCC 14053 [2] (setting [6]), 578 µg/mL (≈ 3190 µM); against C. neoformans ATCC 66031, 290 µg/mL (≈ 1600 µM); against A. niger ATCC 16404, ≥ 578 µg/mL.

For the compound `OCCCCCCCCCCCBr` [11-Bromoundecanol, reference compound], the MIC was found to be 95 µg/mL (≈ 378 µM) with C. albicans ATCC 14053 [2] (setting [6]), 12 µg/mL (≈ 47.8 µM) with C. neoformans ATCC 66031 and 24 µg/mL (≈ 95.5 µM) with A. niger ATCC 16404.

In the case of `C[C@@H]1[C@H](O)[C@@H](C)/C=C/C=C/C=C/C=C/C=C/C=C/C=C/[C@H](O[C@@H]2O[C@H](C)[C@@H](O)[C@H](N)[C@@H]2O)C[C@@H]2O[C@](O)(C[C@@H](O)C[C@@H](O)[C@H](O)CC[C@@H](O)C[C@@H](O)CC(=O)O[C@H]1C)C[C@H](O)[C@H]2C(=O)O` [AMB, amphotericin B, reference compound], the “MIC C. albicans ATCC 14053, RPMI” value against C. albicans ATCC 14053 [1] (setting [7]) came to 0.7 µg/mL (≈ 0.758 µM). In addition, the “MIC C. albicans ATCC 14053, SDB” value in the assay on C. albicans ATCC 14053 [2] (SDB medium pH 5.6, 35-37° C.) came out at 1.5 µg/mL (≈ 1.62 µM). Moreover, the “MIC A. niger ATCC 16404, SDB” value against A. niger ATCC 16404 is 0.4 µg/mL (≈ 0.433 µM).

For `CC(=O)O` [Acetic acid, reference compound], the MIC in the assay with C. albicans ATCC 14053 [1] (setting [5]), against C. albicans ATCC 14053 [2] (setting [6]), against C. neoformans ATCC 66031 and with A. niger ATCC 16404 was ≥ 220 µg/mL in each case.

On to `Fc1ccc(C(Br)(Cn2cncn2)Cn2cncn2)c(F)c1` [Br], for which the minimal inhibitory concentration (MIC) with C. albicans ATCC 14053 [1] (setting [5]) was 701 µg/mL (≈ 1900 µM); with C. albicans ATCC 14053 [2] (setting [6]), > 701 µg/mL; in the assay on C. neoformans ATCC 66031, 22 µg/mL (≈ 59.6 µM); in the assay on A. niger ATCC 16404, 701 µg/mL (≈ 1900 µM).

In the case of `Fc1ccc(C(Cl)(Cn2cncn2)Cn2cncn2)c(F)c1` [Cl], the MIC with C. albicans ATCC 14053 [1] (setting [5]) is 1140 µg/mL (≈ 3500 µM); in the assay with C. albicans ATCC 14053 [2] (setting [6]), > 883 µg/mL; against C. neoformans ATCC 66031, 28 µg/mL (≈ 86.2 µM); with A. niger ATCC 16404, 883 µg/mL (≈ 2720 µM).

With `CCCCCCCCCCCO` [Compound 1-Undecanol, 1-Undecanol, reference compound], the values for the minimum inhibitory concentration (MIC) against C. albicans ATCC 14053 [2] (setting [6]), against C. neoformans ATCC 66031 and with A. niger ATCC 16404 were 87 µg/mL (≈ 505 µM), 28 µg/mL (≈ 162 µM) and 87 µg/mL (≈ 505 µM), respectively.

As for `CC(=O)OC(Cn1cncn1)(Cn1cncn1)c1ccc(F)cc1F` [Compound 1a, O-Acetylfluconazole], the “MIC C. albicans ATCC 14053, RPMI” value in the assay on C. albicans ATCC 14053 [1] (setting [7]) was >1,420 μg/mL. In the assay with C. albicans ATCC 14053 [2] (SDB medium pH 5.6, 35-37° C.), the “MIC C. albicans ATCC 14053, SDB” value is on record as 1,420 μg/mL. In addition, the “MIC C. neoformans ATCC 66031, SDB” value against C. neoformans ATCC 66031 was >1,420 μg/mL. Moreover, the “MIC A. niger ATCC 16404, SDB” value in the assay with A. niger ATCC 16404 is given as “≧1,420 μg/mL”.

In the case of `CCCCCCCCCCCCCC(=O)OC(Cn1cncn1)(Cn1cncn1)c1ccc(F)cc1F` [Compound 1b, O-Tetradecanoylfluconazole], the “MIC C. albicans ATCC 14053, RPMI” value in the assay with C. albicans ATCC 14053 [1] (setting [7]) is 718 µg/mL (≈ 1390 µM). The “MIC C. albicans ATCC 14053, SDB” value in the assay on C. albicans ATCC 14053 [2] (SDB medium pH 5.6, 35-37° C.) worked out at 718 µg/mL (≈ 1390 µM). Moreover, the “MIC C. neoformans ATCC 66031, SDB” value against C. neoformans ATCC 66031 turned out to be 718 µg/mL (≈ 1390 µM). For the same compound, in the assay on A. niger ATCC 16404, the “MIC A. niger ATCC 16404, SDB” value is listed as “≧718 μg/mL”.

(Values after patent US7351731B2, “Azole derivatives and methods for making the same” (Board of Governors for Higher Education, State of Rhode …, priority 2005, dated 2008).)
